Laboratory results from the supplement of paper PMC10307832.

Legend:
Assay in all cases: relative viability (nuclei count vs DMSO), 5 days (fraction); higher = more cells survive
Daporinad + Luminespib = compound: O=C(/C=C/c1cccnc1)NCCCCC1CCN(C(=O)c2ccccc2)CC1 [Daporinad] + CCNC(=O)c1noc(-c2cc(C(C)C)c(O)cc2O)c1-c1ccc(CN2CCOCC2)cc1 [Luminespib] (partner 0.01 µM)
In short: (§1)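 Lung cancer cell lines in 1536-well plates got either a single drug or a fixed anchor-drug dose together with five library-drug doses (not always all listed) in √10 steps, by pin tool, on the day after seeding. Nuclei were counted after 5 days, and relative viability is the treated-to-vehicle ratio of nuclei counts. Values are medians of duplicate plates.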

R406 + Vorinostat = compound: COc1cc(Nc2ncc(F)c(Nc3ccc4c(n3)NC(=O)C(C)(C)O4)n2)cc(OC)c1OC [R406] + O=C(CCCCCCC(=O)Nc1ccccc1)NO [Vorinostat] (partner 1 µM)
In short: as §1

Daporinad + Olaparib = compound: O=C(/C=C/c1cccnc1)NCCCCC1CCN(C(=O)c2ccccc2)CC1 [Daporinad] + O=C(c1cc(Cc2n[nH]c(=O)c3ccccc23)ccc1F)N1CCN(C(=O)C2CC2)CC1 [Olaparib] (partner 8 µM)
In short: as §1

Daporinad + Tozasertib = compound: O=C(/C=C/c1cccnc1)NCCCCC1CCN(C(=O)c2ccccc2)CC1 [Daporinad] + Cc1cc(Nc2cc(N3CCN(C)CC3)nc(Sc3ccc(NC(=O)C4CC4)cc3)n2)n[nH]1 [Tozasertib] (partner 0.1 µM)
In short: as §1

Row | Cell Line | relative viability (Daporinad + Luminespib; first compound 0.0005 µM) | relative viability (Daporinad + Luminespib; first compound 0.001581 µM) | relative viability (Daporinad + Luminespib; first compound 0.005 µM) | relative viability (Daporinad + Luminespib; first compound 0.01581 µM) | relative viability (R406 + Vorinostat; first compound 0.08 µM) | relative viability (R406 + Vorinostat; first compound 0.253 µM) | relative viability (R406 + Vorinostat; first compound 0.8 µM) | relative viability (R406 + Vorinostat; first compound 2.53 µM) | relative viability (R406 + Vorinostat; first compound 8 µM) | relative viability (Daporinad + Olaparib; first compound 0.0005 µM) | relative viability (Daporinad + Olaparib; first compound 0.001581 µM) | relative viability (Daporinad + Olaparib; first compound 0.005 µM) | relative viability (Daporinad + Olaparib; first compound 0.01581 µM) | relative viability (Daporinad + Tozasertib; first compound 0.0005 µM) | relative viability (Daporinad + Tozasertib; first compound 0.001581 µM) | relative viability (Daporinad + Tozasertib; first compound 0.005 µM) | relative viability (Daporinad + Tozasertib; first compound 0.01581 µM)
1 | HARA | 0.761 | 0.621 | 0.837 | 0.175 | 0.66 | 0.606 | 0.515 | 0.489 | 0.515 | 0.726 | 0.425 | 0.466 | 0.28 | 0.117 | 0.105 | 0.109 | 0.0561
2 | NCI-H2087 | 0.178 | 0.177 | 0.154 | 0.159 | 0.43 | 0.741 | 0.885 | 0.646 | 0.954 | 0.69 | 0.575 | 0.205 | 0.236 | 0.262 | 0.229 | 0.339 | 0.221
3 | NCI-H1437 | 1.14 | 1.16 | 1.15 | 1.06 | 0.901 | 0.983 | 0.84 | 0.835 | 0.602 | 0.619 | 0.624 | 0.633 | 0.548 | 0.49 | 0.401 | 0.405 | 0.4
4 | NCI-H358 | 0.27 | 0.305 | 0.599 | 0.359 | 0.766 | 0.726 | 0.722 | 0.314 | 0.273 | 0.556 | 0.507 | 0.351 | 0.293 | 0.0969 | 0.0872 | 0.11 | 0.0799
5 | ChaGo-K-1 | 0.529 | 0.508 | 0.425 | 0.414 | 0.755 | 0.839 | 0.822 | 0.609 | 0.637 | 0.34 | 0.248 | 0.258 | 0.196 | 0.261 | 0.225 | 0.216 | 0.192
6 | NCI-H661 | 0.936 | 0.873 | 0.558 | 0.423 | 0.813 | 0.772 | 0.737 | 0.796 | 0.724 | 0.687 | 0.616 | 0.665 | 0.402 | 0.368 | 0.339 | 0.345 | 0.292
7 | COR-L23 | 0.615 | 0.696 | 0.734 | 0.199 | 0.483 | 0.433 | 0.424 | 0.279 | 0.244 | 0.156 | 0.245 | 0.19 | 0.155 | 0.199 | 0.232 | 0.179 | 0.106
8 | COR-L 105 | 0.807 | 0.805 | 0.82 | 0.738 | 0.743 | 0.893 | 0.824 | 0.651 | 0.514 | 0.637 | 0.66 | 0.61 | 0.591 | 0.38 | 0.282 | 0.357 | 0.341
9 | LK-2 | 0.181 | 0.213 | 0.176 | 0.147 | 0.205 | 0.404 | 0.293 | 0.291 | 0.237 | 0.657 | 0.459 | 0.394 | 0.28 | 0.17 | 0.168 | 0.194 | 0.169
10 | 201T | 1.04 | 1.02 | 1.12 | 1.11 | 0.893 | 1.02 | 1.02 | 0.795 | 0.749 | 0.802 | 0.856 | 0.807 | 0.806 | 0.854 | 0.94 | 1 | 0.958
11 | HCC-44 | 1.07 | 1.12 | 0.942 | 1.28 | 1.07 | 1.1 | 1.1 | 1.04 | 1.22 | 0.962 | 1.06 | 1.04 | 0.985 | 0.881 | 1.03 | 1.16 | 1.05
12 | NCI-H647 | 0.183 | 0.173 | 0.239 | 0.182 | 0.436 | 0.645 | 0.611 | 0.66 | 0.113 | 0.624 | 0.547 | 0.224 | 0.156 | 0.308 | 0.305 | 0.285 | 0.508
13 | H3255 | 0.832 | 0.995 | 0.929 | 1.1 | 0.767 | 0.816 | 0.996 | 0.72 | 0.638 | 0.534 | 0.58 | 0.526 | 0.594 | 0.455 | 0.605 | 0.638 | 0.716
14 | NCI-H650 | 0.82 | 0.825 | 0.734 | 0.953 | 0.494 | 0.442 | 0.495 | 0.439 | 0.331 | 0.358 | 0.462 | 0.346 | 0.285 | 0.691 | 0.853 | 0.738 | 0.835
15 | NCI-H2023 | 0.727 | 0.759 | 0.918 | 0.717 | 0.732 | 0.784 | 0.618 | 0.391 | 0.312 | 0.51 | 0.497 | 0.414 | 0.277 | 0.438 | 0.334 | 0.503 | 0.371
